According to US20230265151A1, “GIP/GLP1 CO-AGONIST COMPOUNDS” (priority 2020, published 2023):
Read-outs that look alike come from different tables or passages of the source. *1 amine or outer side, *2 acyl side, *3 side chain or, on linkers, in order; H or OH if unused. Where a SMILES comes first, the peptide text is derived from it. Side-chain parts run from the residue outwards. [ ]: non-standard residue; d: D form. The star is where a group is joined. αMePhe(2-F) = C[C@](N)(Cc1ccccc1F)C(=O)O; C14 diacid = O=C(O)CCCCCCCCCCCCC(=O)*; εLys = N[C@@H](CCCCN[*:1])C(=O)[*:2]; αMeY = C[C@](N)(Cc1ccc(O)cc1)C(=O)O; 4Pal = N[C@@H](Cc1ccncc1)C(=O)O; αMeL = CC(C)C[C@](C)(N)C(=O)O; Orn = NCCC[C@H](N)C(=O)O; AEEA = NCCOCCOCC(=O)O; Aib = CC(C)(N)C(=O)O

Assays:
Assay type in all cases: cell-based
hGIPR = target: T1, hGIPR (Homo sapiens, UniProt P48546); test: Functional cAMP formation (HTRF) in HEK-293 clonal cells expressing hGIPR, 0.1% bovine casein, without or with 1.0% human serum albumin; details: for EC50: geometric mean
T1 construct: expressed in transfected cells
T1 sequence (P48546 22-466): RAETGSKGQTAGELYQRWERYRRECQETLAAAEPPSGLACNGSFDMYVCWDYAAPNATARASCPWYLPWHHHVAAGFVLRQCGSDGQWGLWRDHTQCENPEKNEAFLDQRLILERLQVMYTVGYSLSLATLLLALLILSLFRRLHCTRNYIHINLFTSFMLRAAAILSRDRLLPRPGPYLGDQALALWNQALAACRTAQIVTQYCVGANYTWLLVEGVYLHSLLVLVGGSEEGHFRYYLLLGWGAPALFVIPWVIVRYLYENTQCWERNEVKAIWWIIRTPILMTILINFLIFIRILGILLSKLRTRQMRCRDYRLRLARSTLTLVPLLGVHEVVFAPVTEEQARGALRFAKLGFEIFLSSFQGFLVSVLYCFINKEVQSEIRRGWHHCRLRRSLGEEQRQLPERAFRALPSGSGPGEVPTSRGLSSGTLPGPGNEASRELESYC
How it was run: (§1)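 Cells were stimulated with peptide for 30 min at 37° C, then intracellular cAMP was measured by competitive HTRF (665/620 nm ratio) and converted to nM using a cAMP standard curve. Relative EC50 and Emax came from four-parameter logistic fits of percent maximal response against peptide concentration.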

hGCGR = target: T2, hGCGR (Homo sapiens, UniProt P47871); test: Functional cAMP formation (HTRF) in HEK-293 clonal cells expressing hGCGR, 0.1% bovine casein, without or with 1.0% human serum albumin
T2 construct: expressed in transfected cells
How it was run: as §1

hGLP-1R = hGLP-1R (Homo sapiens, UniProt P43220); test: Functional cAMP formation (HTRF) in HEK-293 clonal cells expressing hGLP-1R, 0.1% bovine casein, without or with 1.0% human serum albumin; parameters: expressed in transfected cells; details: for EC50: geometric mean
How it was run: as §1

[1] = 0.1% bovine casein and 1.0% human serum albumin, 37° C., read-out: hGIPR EC50, nM (SEM, n)
[2] = HEK293, 0.1% bovine casein and 1.0% human serum albumin, 37° C., percent of maximal response to GIP(1-42)NH2, read-out: hGIPR Emax, % ± SEM
[3] = HEK293, percent of maximal response to GIP(1-42)NH2, 37° C., 0.1% bovine casein, arithmetic mean, read-out: hGIPR Emax, % ± SEM
[4] = 0.1% bovine casein and 1.0% human serum albumin, 37° C., geometric mean, read-out: hGCGR EC50, nM (SEM, n)
[5] = cAMP, incubated at 37° C., 0.1% bovine casein (no human serum albumin), geometric mean, read-out: hGCGR EC50, nM (SEM, n)
[6] = 0.1% bovine casein and 1.0% human serum albumin, 37° C., read-out: hGLP-1R EC50, nM (SEM, n)
[7] = HEK293, percent of maximal response to GLP-1(7-36)NH2, 37° C., 0.1% bovine casein, arithmetic mean, read-out: hGLP-1R Emax, % ± SEM

hGLP-1R, sequence (P43220 24-463): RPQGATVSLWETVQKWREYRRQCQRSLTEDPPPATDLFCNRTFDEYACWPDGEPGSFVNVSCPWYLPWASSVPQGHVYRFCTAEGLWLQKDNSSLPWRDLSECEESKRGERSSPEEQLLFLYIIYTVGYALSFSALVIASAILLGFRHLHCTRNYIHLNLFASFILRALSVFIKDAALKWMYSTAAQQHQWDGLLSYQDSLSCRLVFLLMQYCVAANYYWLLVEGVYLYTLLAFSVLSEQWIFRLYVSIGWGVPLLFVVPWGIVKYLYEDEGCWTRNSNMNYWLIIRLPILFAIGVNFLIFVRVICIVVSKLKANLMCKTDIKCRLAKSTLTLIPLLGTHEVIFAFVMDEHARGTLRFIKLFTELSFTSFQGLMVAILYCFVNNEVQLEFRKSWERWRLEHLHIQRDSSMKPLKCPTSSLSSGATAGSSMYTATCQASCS
T2 sequence (P47871 26-477): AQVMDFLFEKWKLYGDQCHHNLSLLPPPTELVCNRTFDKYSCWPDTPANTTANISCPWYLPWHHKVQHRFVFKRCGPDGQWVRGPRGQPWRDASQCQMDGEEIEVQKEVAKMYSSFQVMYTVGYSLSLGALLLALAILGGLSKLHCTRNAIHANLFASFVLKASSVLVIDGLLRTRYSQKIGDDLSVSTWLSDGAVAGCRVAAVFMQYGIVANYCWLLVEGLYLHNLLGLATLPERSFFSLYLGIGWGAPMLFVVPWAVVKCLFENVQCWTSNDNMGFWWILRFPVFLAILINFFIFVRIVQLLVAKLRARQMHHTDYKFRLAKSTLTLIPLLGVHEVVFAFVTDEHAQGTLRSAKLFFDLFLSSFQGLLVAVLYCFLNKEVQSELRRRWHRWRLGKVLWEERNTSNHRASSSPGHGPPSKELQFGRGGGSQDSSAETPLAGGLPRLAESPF

| EC50 (hGIPR; cAMP, incubated at 37° C., 0.1% bovine casein (no human serum albumin), read-out: hGIPR EC50, nM (SEM, n)) [nM] | EC50 (hGLP-1R; cAMP, incubated at 37° C., 0.1% bovine casein (no human serum albumin), read-out: hGLP-1R EC50, nM (SEM, n)) [nM] | SMILES | EC50 (hGIPR; [1]) [nM] | Emax (hGIPR; [2]) [%] | Emax (hGIPR; [3]) [%] | EC50 (hGCGR; [4]) [nM] | EC50 (hGCGR; [5]) [nM] | EC50 (hGLP-1R; [6]) [nM] | Emax (hGLP-1R; [7]) [%] | Emax (hGIPR; HEK293, cAMP, 37° C., 0.1% bovine casein, percent of maximal response to GIP(1-42)NH2, arithmetic mean, read-out: hGIPR Emax, % ± SEM) [%] | EC50 (hGIPR; cAMP, 37° C., 0.1% bovine casein (no human serum albumin), read-out: hGIPR EC50, nM (SEM, n)) [nM] | EC50 (hGCGR; cAMP, 37° C., 0.1% bovine casein (no human serum albumin), geometric mean, read-out: hGCGR EC50, nM (SEM, n)) [nM] | Emax (hGLP-1R; HEK293, cAMP, 37° C., 0.1% bovine casein, percent of maximal response to GLP-1(7-36)NH2, arithmetic mean, read-out: hGLP-1R Emax, % ± SEM) [%] | Emax (hGIPR; HEK293, read-out: hGIPR Emax, % ± SEM, cAMP, 37° C., 0.1% bovine casein and 1.0% human serum albumin, percent of maximal response to GIP(1-42)NH2) [%] | Emax (hGIPR; HEK293, read-out: hGIPR Emax, % ± SEM, cAMP, 37° C., 0.1% bovine casein, percent of maximal response to GIP(1-42)NH2, arithmetic mean) [%] | EC50 (hGIPR; hGIPR EC50, nM (SEM, n), cAMP, 37° C., 0.1% bovine casein (no human serum albumin)) [nM] | EC50 (hGCGR; hGCGR EC50, nM (SEM, n), cAMP, 37° C., 0.1% bovine casein (no human serum albumin), geometric mean) [nM] | EC50 (hGCGR; hGCGR EC50, nM (SEM, n), cAMP, 37° C., 0.1% bovine casein and 1.0% human serum albumin, geometric mean (SEM, n)) [nM] | Emax (hGLP-1R; HEK293, read-out: hGLP-1R Emax, % ± SEM, cAMP, 37° C., 0.1% bovine casein and 1.0% human serum albumin, percent of maximal response to GLP-1(7-36)NH2) [%] | EC50 (hGLP-1R; hGLP-1R EC50, nM (SEM, n), cAMP, 37° C., 0.1% bovine casein (no human serum albumin)) [nM] |
| --- | --- | --- | --- | --- | --- | --- | --- | --- | --- | --- | --- | --- | --- | --- | --- | --- | --- | --- | --- | --- |
| – | – | CC[C@H](C)[C@H](NC(=O)[C@H](CC(C)C)NC(=O)[C@](C)(Cc1ccc(O)cc1)NC(=O)[C@@H](CCC(=O)O)NC(=O)[C@@H](NC(=O)[C@H](Cc1ccccc1)NC(=O)[C@H](CCC(=O)O)NC(=O)C(C)(C)NC(=O)[C@H](CCC(N)=O)NC(=O)[C@H](C)NC(=O)[C@H](CCCCNC(=O)COCCOCCNC(=O)COCCOCCNC(=O)COCCOCCNC(=O)CC[C@H](NC(=O)CCCCCCCCCCCCC(=O)O)C(=O)O)NC(=O)[C@H](CCCN)NC(=O)[C@H](CC(=O)O)NC(=O)[C@H](CC(C)C)NC(=O)[C@](C)(CC(C)C)NC(=O)[C@@H](NC(=O)[C@H](CO)NC(=O)[C@H](Cc1ccncc1)NC(=O)[C@H](CC(=O)O)NC(=O)[C@H](CO)NC(=O)[C@@H](NC(=O)[C@](C)(Cc1ccccc1F)NC(=O)[C@@H](NC(=O)CNC(=O)[C@H](CCC(=O)O)NC(=O)C(C)(C)NC(=O)[C@@H](N)Cc1ccc(O)cc1)[C@@H](C)O)[C@@H](C)O)[C@@H](C)CC)[C@@H](C)CC)C(=O)N[C@@H](CCC(=O)O)C(=O)NCC(=O)NCC(=O)N1CCC[C@H]1C(=O)N[C@@H](CO)C(=O)N[C@@H](CO)C(=O)NCC(=O)N[C@@H](C)C(=O)N1CCC[C@H]1C(=O)N1CCC[C@H]1C(=O)N1CCC[C@H]1C(=O)N[C@@H](CO)C(=O)N[C@@H](CCCCNC(=O)COCCOCCNC(=O)COCCOCCNC(=O)COCCOCCNC(=O)CC[C@H](NC(=O)CCCCCCCCCCCCC(=O)O)C(=O)O)C(N)=O [Example 225] | 1.81 | 67.5 | 105 | > 9950 | > 9950 | 51.6 | 92.1 | – | – | – | – | – | – | – | – | – | – | – |
| – | – | CC[C@H](C)[C@H](NC(=O)[C@H](CC(C)C)NC(=O)[C@](C)(Cc1ccc(O)cc1)NC(=O)[C@@H](CCC(=O)O)NC(=O)[C@@H](NC(=O)[C@H](Cc1ccccc1)NC(=O)[C@H](CCC(=O)O)NC(=O)C(C)(C)NC(=O)[C@H](CCC(N)=O)NC(=O)[C@H](C)NC(=O)[C@H](CCCCNC(=O)COCCOCCNC(=O)COCCOCCNC(=O)CC[C@H](NC(=O)CCCCCCCCCCCCC(=O)O)C(=O)O)NC(=O)[C@H](CCCN)NC(=O)[C@H](CC(=O)O)NC(=O)[C@H](CC(C)C)NC(=O)[C@](C)(CC(C)C)NC(=O)[C@@H](NC(=O)[C@H](CO)NC(=O)[C@H](Cc1ccc(OC)cc1)NC(=O)[C@H](CC(=O)O)NC(=O)[C@H](CO)NC(=O)[C@@H](NC(=O)[C@](C)(Cc1ccccc1F)NC(=O)[C@@H](NC(=O)CNC(=O)[C@H](CCC(=O)O)NC(=O)C(C)(C)NC(=O)[C@@H](N)Cc1ccc(O)cc1)[C@@H](C)O)[C@@H](C)O)[C@@H](C)CC)[C@@H](C)CC)C(=O)N[C@@H](CCC(=O)O)C(=O)NCC(=O)NCC(=O)N1CCC[C@H]1C(=O)N[C@@H](CO)C(=O)N[C@@H](CO)C(=O)NCC(=O)N[C@@H](C)C(=O)N1CCC[C@H]1C(=O)N1CCC[C@H]1C(=O)N1CCC[C@H]1C(=O)N[C@@H](CO)C(=O)N[C@@H](CCCCNC(=O)COCCOCCNC(=O)COCCOCCNC(=O)CC[C@H](NC(=O)CCCCCCCCCCCCC(=O)O)C(=O)O)C(N)=O [Example 261] | – | 75.7 | – | > 9950 | – | – | – | 105 | 0.025 | > 9950 | 97.9 | – | – | – | – | – | – | – |
| – | – | CCCC[C@H](NC(=O)[C@H](CC(=O)O)NC(=O)[C@H](CO)NC(=O)[C@@H](NC(=O)[C@](C)(Cc1ccccc1F)NC(=O)[C@@H](NC(=O)CNC(=O)[C@H](CCC(=O)O)NC(=O)C(C)(C)NC(=O)[C@@H](N)Cc1ccc(O)cc1)[C@@H](C)O)[C@@H](C)O)C(=O)N[C@@H](CO)C(=O)N[C@H](C(=O)N[C@@](C)(CC(C)C)C(=O)N[C@@H](CC(C)C)C(=O)N[C@@H](CC(=O)O)C(=O)N[C@@H](CCCN)C(=O)N[C@H](C(=O)N[C@@H](C)C(=O)N[C@@H](CCC(N)=O)C(=O)NC(C)(C)C(=O)N[C@@H](CCCCNC(=O)COCCOCCNC(=O)COCCOCCNC(=O)CC[C@H](NC(=O)CCCCCCCCCOc1ccc(C(=O)O)cc1)C(=O)O)C(=O)N[C@@H](Cc1ccccc1)C(=O)N[C@H](C(=O)N[C@H](CCC(=O)O)C(=O)N[C@@](C)(Cc1ccc(O)cc1)C(=O)N[C@@H](CC(C)C)C(=O)N[C@H](C(=O)N[C@@H](CCCCNC(=O)COCCOCCNC(=O)COCCOCCNC(=O)CC[C@H](NC(=O)CCCCCCCCCOc1ccc(C(=O)O)cc1)C(=O)O)C(=O)NCC(=O)NCC(=O)N1CCC[C@H]1C(=O)N[C@@H](CO)C(=O)N[C@@H](CO)C(=O)NCC(=O)N[C@@H](C)C(=O)N1CCC[C@H]1C(=O)N1CCC[C@H]1C(=O)N1CCC[C@H]1C(=O)N[C@@H](CO)C(N)=O)[C@@H](C)CC)[C@@H](C)CC)[C@@H](C)CC)[C@@H](C)CC [Example 333] | – | – | – | – | – | – | – | – | – | – | – | 100 | 109 | 0.0062 | > 9950 | > 9950 | 93.3 | 0.388 |
| 0.018 | 0.419 | CC[C@H](C)[C@H](NC(=O)[C@H](CC(C)C)NC(=O)[C@](C)(Cc1ccc(O)cc1)NC(=O)[C@@H](CCC(=O)O)NC(=O)[C@@H](NC(=O)[C@H](Cc1ccccc1)NC(=O)[C@H](CCC(=O)O)NC(=O)C(C)(C)NC(=O)[C@H](CCC(N)=O)NC(=O)[C@H](C)NC(=O)[C@H](CCCCNC(=O)COCCOCCNC(=O)COCCOCCNC(=O)[C@@H](N)CCCCNC(=O)CCCCCCCCCCCCC(=O)O)NC(=O)[C@H](CCCN)NC(=O)[C@H](CC(=O)O)NC(=O)[C@H](CC(C)C)NC(=O)[C@](C)(CC(C)C)NC(=O)[C@@H](NC(=O)[C@H](CO)NC(=O)[C@H](Cc1ccncc1)NC(=O)[C@H](CC(=O)O)NC(=O)[C@H](CO)NC(=O)[C@@H](NC(=O)[C@](C)(Cc1ccccc1F)NC(=O)[C@@H](NC(=O)CNC(=O)[C@H](CCC(=O)O)NC(=O)C(C)(C)NC(=O)[C@@H](N)Cc1ccc(O)cc1)[C@@H](C)O)[C@@H](C)O)[C@@H](C)CC)[C@@H](C)CC)C(=O)N[C@@H](CCC(=O)O)C(=O)NCC(=O)NCC(=O)N[C@@H](CCCCNC(=O)COCCOCCNC(=O)COCCOCCNC(=O)[C@@H](N)CCCCNC(=O)CCCCCCCCCCCCC(=O)O)C(N)=O [Example 185] (H-Y[Aib]EGT[αMePhe(2-F)]TSD[4Pal]SI[αMeL]LD[Orn]K([AEEA-AEEA-εLys-C14 diacid])AQ[Aib]EFI[dE][αMeY]LIEGGK([AEEA-AEEA-εLys-C14 diacid])-NH2; N-terminus assumed) | 0.335 | 86.2 | 94.5 ± 0.288 | > 9950 | > 9950 | 11.3 | 95.1 ± 1.74 | – | – | – | – | – | – | – | – | – | – | – |
